Source: ChEMBL document CHEMBL1201862, “PubChem BioAssay data set” (2004)
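Cultured in 96-well plates, cells were exposed to test compound for 48 hours across five concentrations. GI50 marks 50% less growth.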 Activity calls are given as the source filed them. Cut-off read from the data, not from the text of the source: active = GI50 up to about 1.1 µM and inactive = higher.

Experiments:
Assay in all cases: NCI-60 cell line screen, 48 h
U-251 = test system: U-251
K562 = test system: K562
MOLT-4 = test system: MOLT-4
SW-620 = test system: SW-620
M14 = test system: M14
SF-539 = test system: SF-539
Malme-3M = test system: Malme-3M
SF-268 = test system: SF-268
IGROV-1 = test system: IGROV-1
LOX IMVI = test system: LOX IMVI
A498 = test system: A498
OVCAR-4 = test system: OVCAR-4
HCT-116 = test system: HCT-116
RXF 393 = test system: RXF 393
SK-OV-3 = test system: SK-OV-3
SK-MEL-5 = test system: SK-MEL-5
MDA-MB-231 = test system: MDA-MB-231
MCF7 = test system: MCF7
T47D = test system: T47D

Measured: GI50

CCCCCN(CCCCC)C(=O)[C@H](CCC(=O)O)NC(=O)c1cc2ccccc2[nH]1
inactive: U-251 35.7 µM | K562 34.8 µM | MOLT-4 24.9 µM | SW-620 > 100 µM | M14 59.7 µM | SF-539 41.2 µM | Malme-3M 94.8 µM | SF-268 33.9 µM | IGROV-1 45.4 µM | LOX IMVI > 100 µM | A498 > 100 µM | OVCAR-4 61 µM | HCT-116 28.3 µM | RXF 393 33.3 µM | SK-OV-3 > 100 µM

O=C(O)\C=C/C=C/C=C/C=C/C(=O)O
inactive: U-251 > 100 µM | K562 > 100 µM | MOLT-4 > 100 µM | SW-620 > 100 µM | M14 > 100 µM | SF-539 > 100 µM | Malme-3M > 100 µM | SF-268 > 100 µM | IGROV-1 > 100 µM | LOX IMVI > 100 µM | A498 > 100 µM | OVCAR-4 > 100 µM | HCT-116 > 100 µM | RXF 393 > 100 µM | SK-OV-3 > 100 µM | SK-MEL-5 > 100 µM

Cc1ccc(S(=O)(=O)Nn2c(S)c(C#N)c(-c3ccc(Cl)cc3)c(C#N)c2=O)cc1
inactive: U-251 22.2 µM | K562 38.6 µM | MOLT-4 24.7 µM | SW-620 22.4 µM | M14 38.1 µM | MDA-MB-231 36.2 µM | SF-539 19.6 µM | Malme-3M 30.8 µM | MCF7 44.6 µM | IGROV-1 20.6 µM | LOX IMVI 29.9 µM | A498 26.5 µM | OVCAR-4 15.1 µM | HCT-116 28.4 µM | RXF 393 32.3 µM | SK-OV-3 61 µM | SK-MEL-5 16.4 µM

N#Cc1sc2nc3c(c(-c4ccccc4)c2c1N)CCCC3
inactive: U-251 39.8 µM | K562 > 100 µM | MOLT-4 > 100 µM | SW-620 > 100 µM | M14 > 10 µM | SF-539 23.9 µM | Malme-3M > 100 µM | LOX IMVI 48 µM | A498 > 100 µM | OVCAR-4 > 100 µM | HCT-116 33.2 µM | RXF 393 41.8 µM | SK-OV-3 39.4 µM

O=C1NC2(NC(=O)C1=O)Nc1ccccc1S2
inactive: U-251 30.9 µM | K562 39.8 µM | MOLT-4 27.5 µM | SW-620 12.9 µM | M14 44.5 µM | SF-539 27 µM | Malme-3M 97.1 µM | SF-268 24.8 µM | IGROV-1 > 92.7 µM | LOX IMVI 18.9 µM | A498 99.1 µM | OVCAR-4 40 µM | HCT-116 19.2 µM | RXF 393 > 54.6 µM | SK-OV-3 > 100 µM | SK-MEL-5 32.7 µM

O=C1CSC(c2cccc([N+](=O)[O-])c2)N1c1ccc(-c2ccc(-n3c(-c4ccccc4)nc4ccccc4c3=O)cc2)cc1 (stereo unspecified)
inactive: U-251 33.5 µM | K562 24.7 µM | T47D 17.9 µM | MOLT-4 17.2 µM | SW-620 40 µM | M14 36.2 µM | MDA-MB-231 29.9 µM | SF-539 46.5 µM | Malme-3M 29.8 µM | SF-268 41.1 µM | MCF7 17.3 µM | IGROV-1 35.3 µM | LOX IMVI 34 µM | A498 64.7 µM | OVCAR-4 25.2 µM | HCT-116 24.7 µM | SK-OV-3 > 100 µM | SK-MEL-5 29.1 µM

O=c1[nH]c(=O)n(C2CC(O)C(CO)O2)cc1OC/C=C/Cc1ccccc1 (stereo unspecified)
inactive: U-251 > 100 µM | K562 > 100 µM | T47D > 100 µM | MOLT-4 > 100 µM | M14 > 100 µM | MDA-MB-231 > 100 µM | Malme-3M > 100 µM | SF-268 > 100 µM | MCF7 > 100 µM | IGROV-1 > 100 µM | LOX IMVI > 100 µM | OVCAR-4 > 100 µM | HCT-116 > 100 µM | RXF 393 > 100 µM | SK-OV-3 > 100 µM | SK-MEL-5 > 100 µM

COc1cc(C2=NNC(=O)c3ccccc3N2c2nc(-c3cccs3)nc3ccc(Br)cc23)cc(OC)c1OC
inactive: U-251 6.1 µM | T47D 15.1 µM | SW-620 18.4 µM | M14 17.1 µM | MDA-MB-231 17.9 µM | SF-539 10.9 µM | Malme-3M 17.3 µM | SF-268 8.91 µM | MCF7 2.33 µM | IGROV-1 10.8 µM | A498 34.8 µM | OVCAR-4 4.55 µM | HCT-116 12.4 µM | SK-OV-3 65.6 µM | SK-MEL-5 10.5 µM

O=C(OC[C@H]1O[C@@H](OC(=O)c2cc(O)c(O)c(O)c2)[C@H](OC(=O)c2cc(O)c(O)c(O)c2)[C@@H](OC(=O)c2cc(O)c(O)c(O)c2)[C@@H]1OC(=O)c1cc(O)c(O)c(O)c1)c1cc(O)c(O)c(O)c1 [PENTAGALLOYL GLUCOSE]
inactive: U-251 5.33 µM | K562 47.2 µM | MOLT-4 3 µM | SW-620 6 µM | M14 7.23 µM | SF-539 2.49 µM | SF-268 4.57 µM | IGROV-1 5.73 µM | LOX IMVI 1.72 µM | A498 6.32 µM | OVCAR-4 8.91 µM | HCT-116 5.11 µM | RXF 393 7.73 µM | SK-OV-3 6.17 µM | SK-MEL-5 11.3 µM
